Paper PMC9304199, “A small molecule CFTR potentiator restores ATP‐dependent channel gating to the cystic fibrosis mutant G551D‐CFTR” (British Journal of Pharmacology, 2022)
Read-outs that look alike come from different tables or passages of the source.

Molecular target: G551D‐CFTR (Homo sapiens, UniProt P13569, G551D)
Assay: Single-channel recording in excised inside-out membrane patches, G551D‐CFTR
Type: biochemical
Set-up: expressed in transfected cells; BHK cells from MD Amaral
Conditions: for enhancement of Po(app): each compound 10 μM, alone or together; for Emax: read-out: Maximal effect (%) (95% CI)
Procedure: For CFTR studies using automated electrophysiology and single-channel recording, we used baby hamster kidney (BHK) cells (RRID:CVCL_1915) and human embryonic kidney (HEK) 293 cells (RRID:CVCL_0045) stably expressing wild-type human CFTR and the CFTR variants F508del- and […] et al., [2002]; Xu et al., [2014]). […] HEK cells expressing CFTR variants were generated using the Flp-InTM system as described above for F508del- and G551D-CFTR-expressing FRT cells. They were cultured in Dulbecco's modified Eagle's medium (glucose, 1.5 g·L^-1; sodium pyruvate, 110 mg·L^-1) supplemented with 10% FBS (PAA Laboratories), GlutaMAXTM and hygromycin-B (150 μg·ml^-1; InvitrogenTM, Thermo Fisher Scientific) at 37°C in a humidified atmosphere with 5% CO2. Prior to study, F508del-CFTR expressed in HEK cells was trafficked to the plasma membrane by low temperature incubation (27°C for 24-72 h). The single-channel behaviour of human CFTR in excised membrane patches from different mammalian cell lines heterologously expressing CFTR is equivalent (wild-type CFTR, Chen et al., [2009]; F508del-CFTR, Bose et al., [2019]; and G551D-CFTR, J Liu, Y Wang, Z Cai, and DN Sheppard, unpublished observations). CFTR Cl^- channels were recorded in excised inside-out membrane patches using an Axopatch 200B patch-clamp amplifier and pCLAMP software (version 10.3) (RRID:SCR_011323) (both from Molecular Devices, San Jose, CA, USA) (Sheppard & Robinson, [1997]). […] Within 2 min after membrane patch excision, we added the catalytic subunit of protein kinase A (PKA; 75 nM) and ATP (1 mM) to the intracellular solution to activate CFTR Cl^- channels. To minimise channel rundown, we added PKA and millimolar concentrations of ATP to all intracellular solutions and clamped voltage at -50 mV. […] We reduced the ATP concentration when testing CFTR potentiators on wild-type CFTR to observe their effects more clearly. […] Instead, specific interventions with CFTR potentiators were compared with the pre-intervention control period made with the same concentration of ATP and PKA, but without test compounds. […] F508del-CFTR, n ≤ 4; G551D-CFTR, n ≤ 5). To determine channel number, we used the maximum number of simultaneous channel openings observed during an experiment (Cai et al., [2006]). To minimise errors, we used experimental conditions that robustly potentiate channel activity and verified that recordings were of sufficient length to ascertain the correct number of channels ([…] et al., [1994]). […] Despite our precautions, we cannot exclude the possibility of unobserved G551D-CFTR Cl^- channels in excised membrane patches causing Po values for G551D-CFTR to be […]. Therefore, Po values for G551D-CFTR are expressed as apparent Po (Po(app)) values. Single-channel currents were directly acquired to a computer hard disc after filtering at a corner frequency (f c) of 500 Hz with an eight-pole Bessel filter (model LHBF-48×; npi electronic GmbH, Tamm, Germany) and digitising at a sampling rate of 5 kHz using a Digidata 1440A interface (Molecular Devices) and pCLAMP software. To measure single-channel current amplitude (i), Gaussian distributions were fit to current amplitude histograms. For Po and burst analyses, lists of open- and closed-times were created using a half-amplitude crossing criterion for event detection and dwell-time histograms constructed as previously described (Sheppard & Robinson, [1997]); transitions < 1 ms were excluded from the analysis (eight-pole Bessel filter rise time [T 10-90] ~ 0.73 ms at f c = 500 Hz). Histograms were fitted with one or more component exponential functions using the maximum likelihood method. […] The mean interburst interval (TIBI) was calculated using the equation (Cai et al., [2006]): (1) Po=Tb/TMBD+TIBI, where T b = (mean burst duration) × (open probability within a burst). Mean burst duration (T MBD) and open probability within a burst (Po[burst]) were determined directly from experimental data using pCLAMP software. […]

[1] = G551D‐CFTR Cl− channels, excised inside-out patches, 23°C, data normalised to ivacaftor 1 μM, read-out: EC50 (μM) (95% CI)
[2] = G551D‐CFTR, ATP 1 mM, PKA 75 nM, ~23°C
[3] = G551D‐CFTR, ATP 1 mM, PKA 75 nM, ~23°C, read-out: EC50 for potentiation of Po(app)
[4] = G551D‐CFTR, compound 10 μM, ATP 0.1–3 mM

G551D‐CFTR, sequence (P13569 whole entry G551D): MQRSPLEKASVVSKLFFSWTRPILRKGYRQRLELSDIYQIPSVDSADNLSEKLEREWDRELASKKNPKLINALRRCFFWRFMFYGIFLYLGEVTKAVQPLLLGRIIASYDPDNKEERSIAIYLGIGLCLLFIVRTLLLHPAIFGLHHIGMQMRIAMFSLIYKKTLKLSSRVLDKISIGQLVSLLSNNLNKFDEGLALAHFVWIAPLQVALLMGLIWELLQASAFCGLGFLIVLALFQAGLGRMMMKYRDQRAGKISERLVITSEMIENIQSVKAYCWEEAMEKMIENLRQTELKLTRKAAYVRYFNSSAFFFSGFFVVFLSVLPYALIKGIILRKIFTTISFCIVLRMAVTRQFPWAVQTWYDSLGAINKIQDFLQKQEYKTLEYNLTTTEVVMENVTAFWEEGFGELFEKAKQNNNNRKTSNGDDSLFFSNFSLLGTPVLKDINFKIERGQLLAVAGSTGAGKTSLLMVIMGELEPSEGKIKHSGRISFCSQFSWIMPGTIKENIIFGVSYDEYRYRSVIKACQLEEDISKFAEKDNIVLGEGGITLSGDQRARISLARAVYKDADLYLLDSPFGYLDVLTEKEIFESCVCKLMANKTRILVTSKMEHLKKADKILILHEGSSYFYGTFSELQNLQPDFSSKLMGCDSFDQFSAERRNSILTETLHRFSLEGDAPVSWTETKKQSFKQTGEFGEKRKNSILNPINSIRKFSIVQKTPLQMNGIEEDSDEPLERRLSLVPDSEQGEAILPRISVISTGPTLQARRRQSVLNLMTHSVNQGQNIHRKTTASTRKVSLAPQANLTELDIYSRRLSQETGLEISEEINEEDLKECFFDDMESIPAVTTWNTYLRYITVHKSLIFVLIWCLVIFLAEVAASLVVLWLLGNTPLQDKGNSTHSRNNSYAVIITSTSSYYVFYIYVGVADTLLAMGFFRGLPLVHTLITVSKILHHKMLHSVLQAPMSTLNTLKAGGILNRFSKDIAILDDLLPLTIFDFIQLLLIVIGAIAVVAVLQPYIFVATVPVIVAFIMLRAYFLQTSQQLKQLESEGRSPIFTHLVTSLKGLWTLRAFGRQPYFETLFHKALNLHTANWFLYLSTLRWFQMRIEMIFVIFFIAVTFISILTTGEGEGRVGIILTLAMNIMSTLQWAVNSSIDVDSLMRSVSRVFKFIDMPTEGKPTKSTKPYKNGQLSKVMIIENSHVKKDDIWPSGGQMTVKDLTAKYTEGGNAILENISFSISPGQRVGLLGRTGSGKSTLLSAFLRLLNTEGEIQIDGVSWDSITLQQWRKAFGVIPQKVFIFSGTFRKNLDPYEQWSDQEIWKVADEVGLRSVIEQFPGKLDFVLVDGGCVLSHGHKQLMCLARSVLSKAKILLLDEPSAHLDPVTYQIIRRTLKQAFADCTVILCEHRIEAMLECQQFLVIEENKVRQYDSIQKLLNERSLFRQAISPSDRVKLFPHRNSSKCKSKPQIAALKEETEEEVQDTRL

Compound: Cc1ncccc1CNC(=O)c1ccc2c(c1)CC[C@H]1C[C@](O)(CCC(F)(F)F)CC[C@]21Cc1ccccc1 (racemic) [CP‐628006, rac‐(4bR,7R,8aS)‐4b‐benzyl‐7‐hydroxy‐N‐((2‐methylpyridin‐3‐yl)methyl)‐7‐(3,3,3‐trifluoropropyl)‐4b,5,6,7,8,8a,9,10‐octahydrophenanthrene‐2‐carboxamide]
- EC50 [1]: 0.17 µM
- Po(app) max [2]: 0.38
- EC50 [3]: 0.38 µM
- Po(app) max of ATP-dependence in presence of compound [4]: 0.30
- enhancement of Po(app) (G551D‐CFTR, ATP 1 mM): 71 ± 30 fold
- Emax: 145%

Compound: CC(C)(C)c1cc(C(C)(C)C)c(NC(=O)c2c[nH]c3ccccc3c2=O)cc1O [ivacaftor, reference compound]
- EC50 [1]: 0.036 µM
- Po(app) max [2]: 0.31
- EC50 [3]: 0.14 µM
- ATP-dependence of G551D‐CFTR activity in presence of compound [4]: unaffected by altering the ATP concentration
- enhancement of Po(app) (G551D‐CFTR, ATP 1 mM): 44 ± 12 fold
- Emax: 96.7%
